Assay results taken from ChEMBL document CHEMBL4507287, “Data for DCP probe MRL-650” (2021).

Tests used:
[1] = test system: Tyrosine-protein kinase ABL1 (Homo sapiens), P00519 [H396P]; settings: Compound concentration 1000.0 nM
[2] = test system: Tyrosine-protein kinase ABL1 (Homo sapiens), P00519 [Q252H]; settings: Compound concentration 1000.0 nM
[3] = biological target: Activin receptor type-2B (Homo sapiens) (UniProt Q13705); settings: Compound concentration 1000.0 nM
[4] = biological target: RAC-alpha serine/threonine-protein kinase (Homo sapiens) (UniProt P31749); settings: Compound concentration 1000.0 nM
[5] = biological target: Mitogen-activated protein kinase kinase kinase 6 (Homo sapiens) (UniProt O95382); settings: Compound concentration 1000.0 nM
[6] = biological target: Calcium/calmodulin-dependent protein kinase type II subunit alpha (Homo sapiens) (UniProt Q9UQM7); settings: Compound concentration 1000.0 nM
[7] = biological target: Serine/threonine-protein kinase Chk2 (Homo sapiens) (UniProt O96017); settings: Compound concentration 1000.0 nM
[8] = biological target: Dual specificity protein kinase CLK2 (Homo sapiens) (UniProt P49760); settings: Compound concentration 1000.0 nM
Sequence of Dual specificity protein kinase CLK2 (Homo sapiens) (P49760 whole entry, looked up): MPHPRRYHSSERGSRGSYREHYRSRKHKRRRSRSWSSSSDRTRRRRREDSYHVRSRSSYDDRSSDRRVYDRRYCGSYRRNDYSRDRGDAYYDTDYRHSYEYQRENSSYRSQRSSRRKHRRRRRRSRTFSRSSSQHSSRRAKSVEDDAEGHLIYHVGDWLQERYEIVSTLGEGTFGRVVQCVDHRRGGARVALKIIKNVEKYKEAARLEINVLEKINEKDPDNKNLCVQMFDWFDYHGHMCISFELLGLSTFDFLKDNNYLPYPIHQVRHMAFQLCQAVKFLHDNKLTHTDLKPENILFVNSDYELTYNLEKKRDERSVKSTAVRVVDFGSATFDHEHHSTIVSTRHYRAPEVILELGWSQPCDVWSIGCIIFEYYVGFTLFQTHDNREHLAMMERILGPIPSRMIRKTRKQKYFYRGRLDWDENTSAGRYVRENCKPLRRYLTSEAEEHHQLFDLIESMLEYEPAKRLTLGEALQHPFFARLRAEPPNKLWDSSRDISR

[9] = biological target: Myotonin-protein kinase (Homo sapiens) (UniProt Q09013); settings: Compound concentration 1000.0 nM
Sequence of Myotonin-protein kinase (Homo sapiens) (Q09013 whole entry): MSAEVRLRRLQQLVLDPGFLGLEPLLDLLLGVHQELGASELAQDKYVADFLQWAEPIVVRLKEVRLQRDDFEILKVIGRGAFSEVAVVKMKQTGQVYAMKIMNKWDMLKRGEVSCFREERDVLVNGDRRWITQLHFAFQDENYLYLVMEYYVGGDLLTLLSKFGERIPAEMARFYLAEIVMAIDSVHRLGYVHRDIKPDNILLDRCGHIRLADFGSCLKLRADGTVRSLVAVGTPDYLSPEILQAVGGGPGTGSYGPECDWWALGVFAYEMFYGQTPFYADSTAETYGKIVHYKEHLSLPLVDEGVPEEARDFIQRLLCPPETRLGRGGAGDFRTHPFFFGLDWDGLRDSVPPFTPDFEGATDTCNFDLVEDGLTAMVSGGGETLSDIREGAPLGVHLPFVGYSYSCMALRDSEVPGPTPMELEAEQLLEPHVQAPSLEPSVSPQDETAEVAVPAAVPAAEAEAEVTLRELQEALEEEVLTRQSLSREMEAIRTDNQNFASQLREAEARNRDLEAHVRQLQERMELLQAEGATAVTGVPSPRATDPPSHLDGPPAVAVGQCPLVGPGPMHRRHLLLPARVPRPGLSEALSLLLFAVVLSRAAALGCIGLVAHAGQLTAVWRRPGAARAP

[10] = biological target: Serine/threonine-protein kinase 17B (Homo sapiens) (UniProt O94768); settings: Compound concentration 1000.0 nM
[11] = test system: Epidermal growth factor receptor (Homo sapiens), P00533 [G719C]; settings: Compound concentration 1000.0 nM
[12] = test system: Epidermal growth factor receptor (Homo sapiens), P00533 [UNDEFINED MUTATION]; settings: Compound concentration 1000.0 nM
[13] = biological target: Ephrin type-A receptor 8 (Homo sapiens) (UniProt P29322); settings: Compound concentration 1000.0 nM
[14] = test system: Receptor-type tyrosine-protein kinase FLT3 (Homo sapiens), P36888 [UNDEFINED MUTATION]; settings: Compound concentration 1000.0 nM
[15] = biological target: Tyrosine-protein kinase Fyn (Homo sapiens) (UniProt P06241); settings: Compound concentration 1000.0 nM
[16] = test system: Mast/stem cell growth factor receptor Kit (Homo sapiens), P10721 [D816H]; settings: Compound concentration 1000.0 nM
[17] = biological target: Mitogen-activated protein kinase kinase kinase kinase 3 (Homo sapiens) (UniProt Q8IVH8); settings: Compound concentration 1000.0 nM
Sequence of Mitogen-activated protein kinase kinase kinase kinase 3 (Homo sapiens) (Q8IVH8 whole entry): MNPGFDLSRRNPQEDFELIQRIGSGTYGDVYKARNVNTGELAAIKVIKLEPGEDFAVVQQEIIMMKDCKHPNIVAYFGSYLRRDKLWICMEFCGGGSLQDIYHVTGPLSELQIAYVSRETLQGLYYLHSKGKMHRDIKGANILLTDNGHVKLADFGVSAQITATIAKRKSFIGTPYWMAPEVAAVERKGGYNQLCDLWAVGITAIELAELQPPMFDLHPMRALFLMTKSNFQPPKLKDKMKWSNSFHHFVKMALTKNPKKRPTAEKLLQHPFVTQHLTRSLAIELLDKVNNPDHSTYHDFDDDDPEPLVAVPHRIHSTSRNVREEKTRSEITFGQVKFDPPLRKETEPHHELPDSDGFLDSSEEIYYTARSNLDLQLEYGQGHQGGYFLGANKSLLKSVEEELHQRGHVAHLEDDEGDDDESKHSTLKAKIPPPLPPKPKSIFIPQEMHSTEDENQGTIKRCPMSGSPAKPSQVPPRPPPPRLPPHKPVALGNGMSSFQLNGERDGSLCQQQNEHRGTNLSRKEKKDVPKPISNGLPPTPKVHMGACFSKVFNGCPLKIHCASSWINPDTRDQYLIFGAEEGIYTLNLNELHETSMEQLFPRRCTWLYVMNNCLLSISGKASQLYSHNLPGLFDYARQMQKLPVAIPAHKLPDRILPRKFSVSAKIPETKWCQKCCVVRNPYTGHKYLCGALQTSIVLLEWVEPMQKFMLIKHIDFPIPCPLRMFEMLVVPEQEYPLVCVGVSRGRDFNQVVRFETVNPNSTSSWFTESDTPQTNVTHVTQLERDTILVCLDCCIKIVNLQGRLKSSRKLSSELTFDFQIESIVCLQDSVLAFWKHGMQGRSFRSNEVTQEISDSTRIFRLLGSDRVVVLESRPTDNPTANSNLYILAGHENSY

[18] = biological target: MAP/microtubule affinity-regulating kinase 3 (Homo sapiens) (UniProt P27448); settings: Compound concentration 1000.0 nM
[19] = biological target: MAP/microtubule affinity-regulating kinase 4 (Homo sapiens) (UniProt Q96L34); settings: Compound concentration 1000.0 nM
[20] = test system: Hepatocyte growth factor receptor (Homo sapiens), P08581 [M1250T]; settings: Compound concentration 1000.0 nM
[21] = biological target: MAP kinase-interacting serine/threonine-protein kinase 1 (Homo sapiens) (UniProt Q9BUB5); settings: Compound concentration 1000.0 nM
[22] = biological target: Myosin light chain kinase family member 4 (Homo sapiens) (UniProt Q86YV6); settings: Compound concentration 1000.0 nM
[23] = biological target: Serine/threonine-protein kinase Nek10 (Homo sapiens) (UniProt Q6ZWH5); settings: Compound concentration 1000.0 nM
Sequence of Serine/threonine-protein kinase Nek10 (Homo sapiens) (Q6ZWH5 whole entry): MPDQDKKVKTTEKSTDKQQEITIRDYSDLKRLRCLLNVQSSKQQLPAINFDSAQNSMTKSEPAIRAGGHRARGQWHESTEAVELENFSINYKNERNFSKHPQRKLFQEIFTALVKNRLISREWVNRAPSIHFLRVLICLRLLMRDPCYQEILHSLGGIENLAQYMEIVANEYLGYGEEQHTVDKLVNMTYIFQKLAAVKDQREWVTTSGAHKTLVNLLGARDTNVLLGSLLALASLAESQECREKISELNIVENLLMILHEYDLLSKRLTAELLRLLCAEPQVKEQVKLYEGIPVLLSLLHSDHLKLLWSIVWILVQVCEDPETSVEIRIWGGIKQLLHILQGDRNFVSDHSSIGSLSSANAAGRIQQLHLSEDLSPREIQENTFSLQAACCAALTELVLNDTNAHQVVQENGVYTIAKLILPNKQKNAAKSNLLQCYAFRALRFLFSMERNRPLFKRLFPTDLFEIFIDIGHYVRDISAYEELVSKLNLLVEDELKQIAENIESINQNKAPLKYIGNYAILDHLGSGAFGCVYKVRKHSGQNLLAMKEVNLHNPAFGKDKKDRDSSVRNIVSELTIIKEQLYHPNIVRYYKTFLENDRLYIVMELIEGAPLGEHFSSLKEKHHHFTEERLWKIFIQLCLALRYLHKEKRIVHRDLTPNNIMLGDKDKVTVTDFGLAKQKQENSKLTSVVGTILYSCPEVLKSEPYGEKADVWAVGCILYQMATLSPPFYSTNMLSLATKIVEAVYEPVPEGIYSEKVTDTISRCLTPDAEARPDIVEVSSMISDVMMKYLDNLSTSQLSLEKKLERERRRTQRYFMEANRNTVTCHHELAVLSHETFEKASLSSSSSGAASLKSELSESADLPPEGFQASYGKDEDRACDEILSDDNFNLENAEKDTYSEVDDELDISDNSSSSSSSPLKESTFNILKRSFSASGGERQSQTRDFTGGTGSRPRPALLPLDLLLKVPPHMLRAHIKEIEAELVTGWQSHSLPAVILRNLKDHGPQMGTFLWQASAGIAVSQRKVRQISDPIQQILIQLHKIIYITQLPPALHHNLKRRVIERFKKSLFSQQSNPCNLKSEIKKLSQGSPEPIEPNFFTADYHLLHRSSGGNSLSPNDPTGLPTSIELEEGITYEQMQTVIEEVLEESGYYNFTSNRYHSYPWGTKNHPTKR

[24] = biological target: Serine/threonine-protein kinase Nek6 (Homo sapiens) (UniProt Q9HC98); settings: Compound concentration 1000.0 nM
Sequence of Serine/threonine-protein kinase Nek6 (Homo sapiens) (Q9HC98 whole entry): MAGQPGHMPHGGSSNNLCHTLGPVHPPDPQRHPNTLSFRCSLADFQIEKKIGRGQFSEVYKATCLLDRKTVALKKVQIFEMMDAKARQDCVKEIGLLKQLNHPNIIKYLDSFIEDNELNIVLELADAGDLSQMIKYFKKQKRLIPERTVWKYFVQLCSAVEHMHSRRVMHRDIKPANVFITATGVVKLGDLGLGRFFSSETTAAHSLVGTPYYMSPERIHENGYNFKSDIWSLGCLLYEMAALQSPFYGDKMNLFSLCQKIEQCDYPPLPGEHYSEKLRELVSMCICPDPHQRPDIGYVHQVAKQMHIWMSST

[25] = biological target: Mitogen-activated protein kinase 11 (Homo sapiens) (UniProt Q15759); settings: Compound concentration 1000.0 nM
Sequence of Mitogen-activated protein kinase 11 (Homo sapiens) (Q15759 whole entry): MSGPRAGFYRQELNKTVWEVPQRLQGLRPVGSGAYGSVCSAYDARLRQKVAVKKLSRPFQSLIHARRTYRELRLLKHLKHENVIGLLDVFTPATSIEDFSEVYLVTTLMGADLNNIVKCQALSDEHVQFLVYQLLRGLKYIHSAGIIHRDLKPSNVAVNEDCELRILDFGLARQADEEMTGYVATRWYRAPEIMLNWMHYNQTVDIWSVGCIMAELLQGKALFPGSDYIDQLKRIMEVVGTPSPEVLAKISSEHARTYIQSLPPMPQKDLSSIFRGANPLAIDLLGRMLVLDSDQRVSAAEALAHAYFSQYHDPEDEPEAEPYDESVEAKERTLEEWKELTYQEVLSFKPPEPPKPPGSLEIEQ

[26] = biological target: Serine/threonine-protein kinase PAK 2 (Homo sapiens) (UniProt Q13177); settings: Compound concentration 1000.0 nM
[27] = biological target: Serine/threonine-protein kinase PAK 5 (Homo sapiens) (UniProt Q9P286); settings: Compound concentration 1000.0 nM
Sequence of Serine/threonine-protein kinase PAK 5 (Homo sapiens) (Q9P286 whole entry, looked up, canonical isoform): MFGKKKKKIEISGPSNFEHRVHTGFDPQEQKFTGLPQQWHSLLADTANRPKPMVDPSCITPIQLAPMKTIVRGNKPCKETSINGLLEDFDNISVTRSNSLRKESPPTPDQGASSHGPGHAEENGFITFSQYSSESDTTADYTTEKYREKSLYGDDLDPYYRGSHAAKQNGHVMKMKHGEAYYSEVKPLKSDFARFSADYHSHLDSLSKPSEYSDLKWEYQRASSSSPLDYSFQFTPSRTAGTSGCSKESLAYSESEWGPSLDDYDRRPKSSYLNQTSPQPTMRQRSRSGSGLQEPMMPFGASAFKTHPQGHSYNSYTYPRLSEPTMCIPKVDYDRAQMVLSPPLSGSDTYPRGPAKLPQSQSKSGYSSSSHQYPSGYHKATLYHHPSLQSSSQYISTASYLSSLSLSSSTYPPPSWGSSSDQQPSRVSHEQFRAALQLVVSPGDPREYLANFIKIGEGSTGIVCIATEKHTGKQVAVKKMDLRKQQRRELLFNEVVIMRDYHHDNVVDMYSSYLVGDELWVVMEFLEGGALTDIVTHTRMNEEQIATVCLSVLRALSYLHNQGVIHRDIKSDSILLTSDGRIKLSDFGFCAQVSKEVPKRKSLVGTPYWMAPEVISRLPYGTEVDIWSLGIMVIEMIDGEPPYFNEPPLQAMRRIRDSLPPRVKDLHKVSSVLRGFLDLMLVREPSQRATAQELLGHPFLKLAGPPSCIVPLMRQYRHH

[28] = test system: Phosphatidylinositol 4,5-bisphosphate 3-kinase catalytic subunit alpha isoform (Homo sapiens), P42336 [H1047L]; settings: Compound concentration 1000.0 nM
[29] = biological target: Phosphatidylinositol 4-phosphate 5-kinase type-1 gamma (Homo sapiens) (UniProt O60331); settings: Compound concentration 1000.0 nM
[30] = biological target: Phosphatidylinositol 5-phosphate 4-kinase type-2 beta (Homo sapiens) (UniProt P78356); settings: Compound concentration 1000.0 nM
Sequence of Phosphatidylinositol 5-phosphate 4-kinase type-2 beta (Homo sapiens) (P78356 whole entry): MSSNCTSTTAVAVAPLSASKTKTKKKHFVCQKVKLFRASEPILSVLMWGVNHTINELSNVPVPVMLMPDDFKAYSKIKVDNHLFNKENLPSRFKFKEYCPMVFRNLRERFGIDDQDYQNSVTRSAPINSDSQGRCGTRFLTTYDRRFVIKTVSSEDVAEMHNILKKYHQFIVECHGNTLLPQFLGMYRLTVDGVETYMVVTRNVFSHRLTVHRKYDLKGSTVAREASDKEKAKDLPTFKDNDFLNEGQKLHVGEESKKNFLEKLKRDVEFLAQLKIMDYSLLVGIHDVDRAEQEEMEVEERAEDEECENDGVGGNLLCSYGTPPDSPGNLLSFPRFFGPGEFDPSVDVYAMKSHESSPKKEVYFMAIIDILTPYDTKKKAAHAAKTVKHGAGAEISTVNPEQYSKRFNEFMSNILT

[31] = biological target: cAMP-dependent protein kinase catalytic subunit beta (Homo sapiens) (UniProt P22694); settings: Compound concentration 1000.0 nM
[32] = biological target: Serine/threonine-protein kinase PLK1 (Homo sapiens) (UniProt P53350); settings: Compound concentration 1000.0 nM
[33] = biological target: Serine/threonine-protein kinase PLK3 (Homo sapiens) (UniProt Q9H4B4); settings: Compound concentration 1000.0 nM
[34] = biological target: Serine/threonine-protein kinase D3 (Homo sapiens) (UniProt O94806); settings: Compound concentration 1000.0 nM
[35] = biological target: RAF proto-oncogene serine/threonine-protein kinase (Homo sapiens) (UniProt P04049); settings: Compound concentration 1000.0 nM
[36] = biological target: Proto-oncogene tyrosine-protein kinase receptor Ret (Homo sapiens) (UniProt P07949); settings: Compound concentration 1000.0 nM
[37] = biological target: Ribosomal protein S6 kinase alpha-1 (Homo sapiens) (UniProt Q15418); settings: Compound concentration 1000.0 nM
[38] = biological target: Serine/threonine-protein kinase SBK1 (Homo sapiens) (UniProt Q52WX2); settings: Compound concentration 1000.0 nM
[39] = biological target: Serine/threonine-protein kinase TAO3 (Homo sapiens) (UniProt Q9H2K8); settings: Compound concentration 1000.0 nM
[40] = biological target: Serine/threonine-protein kinase TBK1 (Homo sapiens) (UniProt Q9UHD2); settings: Compound concentration 1000.0 nM
[41] = biological target: TGF-beta receptor type-2 (Homo sapiens) (UniProt P37173); settings: Compound concentration 1000.0 nM
[42] = biological target: Serine/threonine-protein kinase tousled-like 1 (Homo sapiens) (UniProt Q9UKI8); settings: Compound concentration 1000.0 nM
[43] = biological target: Mu-type opioid receptor (Homo sapiens) (UniProt P35372); settings: Compound concentration 10.0 uM
[44] = biological target: Muscarinic acetylcholine receptor M5 (Homo sapiens) (UniProt P08912); settings: Compound concentration 10.0 uM

CC(=O)Nc1c(C(C)=O)c(=O)n(C)c2nc(-c3ccc(Cl)cc3Cl)c(-c3ccc(Cl)cc3)cc12 [NAPHTHYRIDINONE]
inactive: residual activity [1] 100% | residual activity [2] 72% | residual activity [3] 100% | residual activity [4] 100% | residual activity [5] 94% | residual activity [6] 100% | residual activity [7] 100% | residual activity [8] 100% | residual activity [9] 100% | residual activity [10] 100% | residual activity [11] 100% | residual activity [12] 100% | residual activity [13] 100% | residual activity [14] 100% | residual activity [15] 100% | residual activity [16] 100% | residual activity [17] 100% | residual activity [18] 100% | residual activity [19] 100% | residual activity [20] 100% | residual activity [21] 100% | residual activity [22] 100% | residual activity [23] 100% | residual activity [24] 100% | residual activity [25] 93% | residual activity [26] 100% | residual activity [27] 100% | residual activity [28] 95% | residual activity [29] 100% | residual activity [30] 91% | residual activity [31] 100% | residual activity [32] 100% | residual activity [33] 100% | residual activity [34] 100% | residual activity [35] 100% | residual activity [36] 100% | residual activity [37] 100% | residual activity [38] 80% | residual activity [39] 63% | residual activity [40] 81% | residual activity [41] 100% | residual activity [42] 100% | inhibition [43] 8.16% | inhibition [44] -4.54%

CC(=O)c1c(NS(C)(=O)=O)c2cc(-c3ccc(Cl)cc3)c(-c3ccc(Cl)cc3Cl)nc2n(C)c1=O [MRL-CB1-NC]
inactive: residual activity [1] 100% | residual activity [2] 76% | residual activity [3] 100% | residual activity [4] 89% | residual activity [5] 83% | residual activity [6] 100% | residual activity [7] 100% | residual activity [8] 100% | residual activity [9] 89% | residual activity [10] 100% | residual activity [11] 100% | residual activity [12] 100% | residual activity [13] 97% | residual activity [14] 98% | residual activity [15] 92% | residual activity [16] 70% | residual activity [17] 99% | residual activity [18] 100% | residual activity [19] 100% | residual activity [20] 90% | residual activity [21] 100% | residual activity [22] 100% | residual activity [23] 99% | residual activity [24] 100% | residual activity [25] 100% | residual activity [26] 100% | residual activity [27] 98% | residual activity [28] 96% | residual activity [29] 100% | residual activity [30] 65% | residual activity [31] 92% | residual activity [32] 87% | residual activity [33] 89% | residual activity [34] 100% | residual activity [35] 100% | residual activity [36] 93% | residual activity [37] 88% | residual activity [38] 77% | residual activity [39] 72% | residual activity [40] 92% | residual activity [41] 100% | residual activity [42] 95% | inhibition [43] 34.4% | inhibition [44] -4.92%
